Assay results published in US6201116A, “Halide indicators” (The Regents of the University of California, priority 1999, dated 2001).

Experiments:
[1] = Fluorescence spectra / optical properties; type: physicochemical; parameters: key to Brightness: ++++: very bright; +++: bright; ++: moderate brightness; +: weak; conditions: for Brightness / λem (emission wavelength) / λex (excitation wavelength): Table 4
Procedure: (§1) Computations. In vitro fluorescence quenching studies were carried out at peak excitation and emission wavelengths. Microliter aliquots of the sodium salt of the quenching anion (1 M) were added to indicator solution in 5 mM sodium phosphate (pH 7.2, unless indicated otherwise). Fluorescence intensities in the absence (Fo) and presence (F) of quencher anion ([Q]) were measured to give the Stem-Volmer constant (Kq) as defined by:
Fluorescence spectra reveal that LZQ and LMQ have broad excitation and emission peaks with maxima at 424 and 528 nm, respectively. The molar extinction coefficient of LZQ was 11,100 M^-1 cm^-1 at 424 nm and the quantum yield in the absence of I^- was 0.53. Stem-Volmer plots for quenching of LZQ and LMQ by I^- and Cl^-, with data for SPQ shown for comparison, were generated. In water (or saline), LZQ fluorescence was quenched by I^- with a Stem-Volmer constant of 60 M^-1. LZQ fluorescence was not quenched (Stem-Volmer constant <1 M^-1) by Cl^-, NO3^-, phosphate, acetate, Na^+ and K^+. LZQ fluorescence and I^- sensitivity were not affected by pH changes in the range 4.5-8.

[2] = In vitro fluorescence quenching by I^- (Stern-Volmer); type: physicochemical; conditions: Table 4
Procedure: as §1, with “by: Fo /F=1+Kq [Q].” for “by:”

CFTR = conditions: cited from earlier work; for correction of CF phenotype (chemical chaperones): Swiss 3T3, Brown et al., 1996
cells [3] = assay: Cell loading and intracellular distribution (fluorescence/confocal microscopy); type: cell-based; conditions: for Cellular properties: staining/distribution: Table 4
Procedure: (§2) Fluorescence microscopy. Fluorescence microscopy measurements were performed as described previously (Chao et al., 1989). Briefly, coverglasses were mounted in a 0.5 ml perfusion chamber in which the cell-free glass surface made contact with an oil immersion objective (Nikon ×40 magnification, numerical aperture[NA] 1.3). Cell fluorescence was excited at 365±10 nm (SPQ) or 420 nm±10 nm (LZQ and LMQ). Emitted fluorescence was detected by a photomultiplier in a Nikon inverted epifluorescence microscope using a 410 nm dichroic mirror and 420 nm barrier filter (SPQ) or a 455 nm dichroic mirror and 500 nm barrier filter (LZQ). For cells colabeled with SPQ and LZQ, SPQ fluorescence was excited at 365±10 nm and detected using a 410 nm dichroic mirror and 455±30 nm interference filter. Confocal fluorescence micrographs were obtained using a Nipkow wheel confocal microscope and cooled CCD camera detector using a ×60 oil immersion objective (Nikon, NA 1.4). LZQ-labeled cells were viewed using a fluorescein filter set (excitation 480±15 nm, emission 520±20 nm).
Transport measurements. Cells were labeled with LZQ or SPQ by hypotonic shock (loading buffer/water 1:1 containing 2 mM LZQ or 7.5 mM SPQ) for 5 min at room temperature or by overnight incubation with indicators in the cell culture medium. Extracellular indicator was removed by washing just prior to measurements. For fluorescence microscopy, glass coverslips were then mounted in a perfusion chamber (flow ~2 ml/min) in which solutions were exchanged using a 4-way valve. For microplate reader measurements, cells in 96-well plates were bathed in […] of the `1st buffer` (see Table 3) and […] of the Cl^- -containing, I^- -free solution was injected into the well to drive Cl^- /I^- exchange (protocol 1). For stimulation of CFTR using protocol 2, […] of a 1:8 mixture of the 1st buffer and the 2nd buffer containing […] forskolin, 2 mM CPT-cAMP and […] IBMX was added.
(§3) LZQ and LMQ were loaded into cells efficiently by hypotonic shock or passive incubation. […] As was found for SPQ, LZQ and LMQ were non-toxic to cells in assays of cell growth (2 mM in culture medium for 72 h).

cells [4] = assay: Indicator leakage / cytoplasmic retention; type: cell-based; conditions: Table 4
Procedure: as §2
(§4) A time course of LZQ fluorescence during perfusion with physiological saline at 23° C. was generated. A small group of 20-30 cells was illuminated continuously and fluorescence was detected by a photomultiplier using an ×40, 1.3 NA objective. Cellular fluorescence decreased slowly at a rate of 2.5% per hour. To determine the relative contributions of indicator leakage vs. photobleaching to the slow decline in fluorescence, the perfused cells were illuminated intermittently. […] Background fluorescence (in non-labeled cells) was generally <5% of the fluorescence of LZQ-labeled cells.

cells [5] = assay: Photobleaching in cells; type: cell-based; conditions: Table 4
Procedure: as §2, §4

cells [6] = assay: Toxicity in assays of cell growth; type: cell-based; conditions: 2 mM in culture medium for 72 h
Procedure: as §3

cells [7] = assay: Response of intracellular fluorescence to osmotically-induced changes in cell volume; type: cell-based
Procedure: as §2
The similar LZQ lifetime in cells and water predicts that LZQ fluorescence should be relatively insensitive to cell volume in the absence of I^-. […] When cells were exposed to hypoosmotic medium (225 mOsm), SPQ fluorescence increased by 15±2%, whereas LZQ fluorescence increased by only 4±1%.

[8] = tested on: CFTR-expressing fibroblasts and T84 cells; assay: Cl^-/I^- exchange by LZQ fluorescence, CFTR-expressing cells; type: cell-based; conditions: solution Cl^- replaced by I^-
Procedure: as §2, with “LZQ-labeled cells were viewed using a fluorescein filter set (excitation 480±15 nm, emission 520±20 nm).” left out
(§5) Transport measurements. […] For fluorescence microscopy, glass coverslips were then mounted in a perfusion chamber (flow ~2 ml/min) in which solutions were exchanged using a 4-way valve. For microplate reader measurements, cells in 96-well plates were bathed in […] of the `1st buffer` (see Table 3) and […] of the Cl^- -containing, I^- -free solution was injected into the well to drive Cl^- /I^- exchange (protocol 1). […]

control fibroblasts = assay: Cl^-/I^- exchange by LZQ fluorescence, control cells; type: cell-based; conditions: solution Cl^- replaced by I^-
Procedure: as §2, with “LZQ-labeled cells were viewed using a fluorescein filter set (excitation 480±15 nm, emission 520±20 nm).” left out
as §5

Compound: C[n+]1c(-c2ccccc2)ccc2cc3ccc(-c4ccccc4)nc3cc21 [Compound VII, 1-methyl-2,7-diphenylpyrido-[3,2,g]quinolinium]
- Brightness [1]: +++
- λem (emission wavelength) [1]: 515 nm
- λex (excitation wavelength) [1]: 405 nm
- Ksv (I^-), Stern Volmer quenching constant [2]: 46 M⁻¹

Compound: [2H]O[2H] [D2 O]
- correction of CF phenotype (chemical chaperones) (CFTR): corrected the CF phenotype

Compound: NCCCNCCCCNC(=O)C(O)NC(=O)CCCCCCN=C(N)N (centres unmarked) [Deoxyspergualin]
- restoration of Cl transport (CFTR; C127-CFTR, JME/CF15, IBE-1, Jiang et al., 1998): partially restored

Compound: CC(C)Cn1c(=O)n(C)c(=O)c2[nH]cnc21 [IBMX, 3-isobutyl-1-methylxanthine]
- effect of increased [IBMX] on ΔF508 response (CFTR; L cells, Yang et al., 1993): improved

Compound: N=c1ccc2c(-c3ccccc3C(=O)O)c3ccc(N)cc3oc-2c1 [III, rhodamine-110, reference compound]
- Brightness [1]: ++++
- λem (emission wavelength) [1]: 520 nm
- λex (excitation wavelength) [1]: 496 nm
- Ksv (I^-), Stern Volmer quenching constant [2]: 40 M⁻¹

Compound: Nc1ncnc2c1nc([O-])c1cccc[n+]12 [II]
- emission maximum [1]: 528 nm
- excitation maximum [1]: 424 nm
- Brightness [1]: +++
- λem (emission wavelength) [1]: 530 nm
- λex (excitation wavelength) [1]: 424 nm
- Ksv (I^-), Stern Volmer quenching constant [2]: 70 M⁻¹
- Cellular properties: staining/distribution (cells [3]): staining uniform
- loading into cells (cells [3]; hypotonic shock or passive incubation): efficiently
- Cellular properties: leakage rate (cells [4]): moderate
- Cellular properties: photobleaching (cells [5]): slow photobleaching
- toxicity to cells (cell growth) (cells [6]): non-toxic

Compound: Cc1cc2cc3cc(C)c(N)cc3[n+](C)c2cc1N [IX, 10-methyl acridinium yellow]
- Brightness [1]: ++++
- λem (emission wavelength) [1]: 520 nm
- λex (excitation wavelength) [1]: 440 nm
- Ksv (I^-), Stern Volmer quenching constant [2]: 90 M⁻¹
- Cellular properties: photobleaching (cells [5]): very rapid

Compound: COc1ccc2c(ccc[n+]2CCCS(=O)(=O)[O-])c1 [SPQ, 6-methoxy-N-[3-sulfopropyl]quinolinium, reference compound]
- toxicity to cells (cell growth) (cells [6]): non-toxic
- fluorescence increase upon exposure to hypoosmotic medium (cells [7]; 225 mOsm): 15±2%
- fluorescence decrease upon exposure to hyperosmotic medium (cells [7]; 600 mOsm, absence of Cl^-, S.E., n=3): 30±2%

Compound: C[N+](C)(C)[O-] [TMAO]
- correction of CF phenotype (chemical chaperones) (CFTR): corrected the CF phenotype

Compound: O=c1ccc2nc3ccc(O)cc3oc-2c1 [VIII, resorufin, reference compound]
- Brightness [1]: +++
- λem (emission wavelength) [1]: 585 nm
- λex (excitation wavelength) [1]: 571 nm
- Ksv (I^-), Stern Volmer quenching constant [2]: 76 M⁻¹

Compound: CN(C)c1ccc2cc3ccc(N(C)C)cc3[n+](C)c2c1 [X, 10-methyl acridinium orange]
- Brightness [1]: ++++
- λem (emission wavelength) [1]: 550 nm
- λex (excitation wavelength) [1]: 440 nm
- Ksv (I^-), Stern Volmer quenching constant [2]: 30 M⁻¹
- Cellular properties: photobleaching (cells [5]): very rapid

Compound: Nc1c2ccccc2[n+](CCCS(=O)(=O)[O-])c2ccccc12 [XII, 9-amino-10-(3-sulfopropys) acridinium]
- Brightness [1]: +++
- λem (emission wavelength) [1]: 457 nm
- λex (excitation wavelength) [1]: 422 nm
- Ksv (I^-), Stern Volmer quenching constant [2]: 253 M⁻¹
- Cellular properties: staining/distribution (cells [3]): nuclear staining
- Cellular properties: photobleaching (cells [5]): rapid

Compound: Nc1ccc2nc3ccc(N)cc3[n+](-c3ccccc3)c2c1 [XIII, phenosafranine, reference compound]
- Brightness [1]: ++
- λem (emission wavelength) [1]: 586 nm
- λex (excitation wavelength) [1]: 520 nm
- Ksv (I^-), Stern Volmer quenching constant [2]: 33 M⁻¹

Compound: C=C[C@@]1(C)CC(=O)[C@]2(O)[C@@]3(C)[C@@H](O)CCC(C)(C)[C@@H]3[C@H](O)[C@H](OC(C)=O)[C@@]2(C)O1 [forskolin]
- forskolin-stimulated change in LZQ fluorescence [8]: rapid decrease in LZQ fluorescence
- forskolin-stimulated decrease in LZQ fluorescence, control (control fibroblasts): not in control fibroblasts

Compound: OCC(O)CO [glycerol]
- correction of CF phenotype (chemical chaperones) (CFTR): corrected the CF phenotype

Compound: CCCC(=O)[O-].[Na+] [sodium butyrate]
- Cl transport, overexpression of ΔF508 (CFTR; CFPAC-1, JME/CF15, 1° culture, Cheng et al., 1995): resulted in detectable Cl

Compound: CFTR protein: purified CFTR protein
- Cl transport after transfer of purified protein (CFTR; CHO-CFTR, FRT-CFTR, LLCPK1, Marshall et al., 1994): induced Cl transport

Compound: rhodamine green [IV, reference compound]
- Brightness [1]: ++++
- λem (emission wavelength) [1]: 530 nm
- λex (excitation wavelength) [1]: 505 nm
- Ksv (I^-), Stern Volmer quenching constant [2]: 30 M⁻¹
